{"source": "patent US4237135A", "about": "“2-(4-Ethyl-1-piperazinyl)-4-phenylquinoline, process for preparation thereof, and composition thereof” (Dainippon Pharmaceutical Co., Ltd., priority 1978, dated 1980)", "key": {"[1]": {"tested_on": "brain 5-hydroxyindoleacetic acid (5-HIAA)", "experiment": "Effect on brain monoamine metabolites: 5-HIAA", "assay_type": "in vivo, male Wistar strain rats", "details": "100 mg/kg p.o.; for Brain 5-HIAA, % of control: *P<0.01", "procedure": "Each test compound was given orally to the rats in a dose of 100 mg/kg and, 1, 3 and 6 hours later the rats were sacrificed. […] The concentrations of the monoamine metabolites were calculated in terms of ng/g wet brain tissue and expressed as % of the concentrations of controls receiving saline."}, "[2]": {"tested_on": "catalepsy induced by reserpine", "experiment": "Anti-reserpine activity: antagonistic effect on catalepsy induced by reserpine", "assay_type": "in vivo, male STD-ddY strain mice", "details": "p.o.; for ED50: Mus musculus, po, 1 h, reserpine 5 mg/kg i.p.", "procedure": "In the experiments, ED50 was calculated by Litchfield-Wilcoxon method. Male STD-ddY strain mice, weighing […], were used in groups of 10 mice each. […] The mice were tested for catalepsy 1 hour after the administration of test compounds. ED50 was calculated for each compound."}, "tremorine-induced tremor": {"tested_on": "tremorine-induced tremor", "experiment": "Anti-tremorine activity (antagonistic effect on tremorine-induced tremor)", "assay_type": "in vivo, male STD-ddY strain mice", "procedure": "Pharmacological experiments have been done on the compound of the present invention, some known and novel analogous compounds and an antidepressant on the market, as mentioned below. In the experiments, ED50 was calculated by Litchfield-Wilcoxon method.\nMale STD-ddY strain mice, weighing 20-25 g, were used in groups of 5 mice each. Each test compound was given orally to the mice in 5 different doses, and 2 hours later 20 mg/kg of tremorine was injected intraperitoneally. Half an hour after the injection of tremorine, each mouse was examined macroscopically for tremor severity, according to the rating scale with the scores 0, 1, 2, and 3 depending on the severity. ED50 was calculated for each compound. The ED50 means the dose of test compound in which the tremorine-induced tremor was inhibited by 50% in severity."}}, "note": "Like-named read-outs stand apart in the source and are kept apart here."}
{"smiles": "CCN1CCN(c2cc(-c3ccccc3)c3ccccc3n2)CC1.Cl.Cl", "note": "[A, 2-(4-Ethyl-1-piperazinyl)-4-phenylquinoline dihydrochloride]", "values": [{"measurement": "Brain 5-HIAA concentration / serotonin turnover (in words)", "setting": "[1]", "value": "does not affect brain 5-HIAA concentration"}, {"measurement": "Brain 5-HIAA, % of control", "setting": "[1]; 1 hour", "value": "118 % of control"}, {"measurement": "Brain 5-HIAA, % of control", "setting": "[1]; 3 hours", "value": "110 % of control"}, {"measurement": "Brain 5-HIAA, % of control", "setting": "[1]; 6 hours", "value": "116 % of control"}, {"measurement": "ED50", "setting": "[2]; Table 1, read-out: Anti-reserpine activity ED50, catalepsy", "value": 1.5, "unit": "mg/kg"}, {"measurement": "ED50", "setting": "[2]; Table 2, read-out: Anti-reserpine ED50, catalepsy", "value": 1.5, "unit": "mg/kg"}, {"measurement": "Potency in antagonizing reserpine catalepsy relative to imipramine", "setting": "[2]; versus imipramine", "value": 25.5, "unit": "times more powerful"}, {"measurement": "ED50", "setting": "tremorine-induced tremor; Mus musculus, po, tremorine 20 mg/kg i.p., read-out: Anti-tremorine activity ED50", "value": 9.7, "unit": "mg/kg"}, {"measurement": "Anti-tremorine activity (in words)", "setting": "tremorine-induced tremor; p.o.", "value": "more potent than imipramine and almost comparable to biperiden"}]}
